Reference: patent US20080269213A1, “8-Hydroxyquinoline compounds and methods thereof” (Wyeth, priority 2006, published 2008)
Where two headings read alike, the source gives them in different places.

Key:
[1] = biological target: T1, recombinant human Aggrecanase-2 Agg2-Phe628 (Homo sapiens, UniProt Q9UNA0); assay: Aggrecanase 2 in vitro enzyme assay (Agg-2 FRET, quenched fluorescent peptide substrate); assay type: biochemical; design: purified recombinant human Aggrecanase-2 Agg2-Phe628 (MW=41,737); This is a truncated form of full-length human aggrecanase-2; made in house; host or cells: CHO cells; details: for Agg-2 FRET Median PCT INHIB: concentration not given
T1 sequence (Q9UNA0 262-628 limits assumed): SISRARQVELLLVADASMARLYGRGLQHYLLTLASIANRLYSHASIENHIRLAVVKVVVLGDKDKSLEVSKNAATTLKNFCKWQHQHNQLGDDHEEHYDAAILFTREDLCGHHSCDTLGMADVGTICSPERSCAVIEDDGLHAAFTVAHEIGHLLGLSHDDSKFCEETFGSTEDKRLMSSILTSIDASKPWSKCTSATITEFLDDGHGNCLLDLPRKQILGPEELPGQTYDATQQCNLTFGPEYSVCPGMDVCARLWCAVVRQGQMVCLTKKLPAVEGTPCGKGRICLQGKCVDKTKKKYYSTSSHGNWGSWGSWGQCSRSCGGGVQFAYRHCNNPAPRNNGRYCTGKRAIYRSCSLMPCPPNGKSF
In short: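 Continuous FRET assay with purified truncated human Aggrecanase-2 Agg2-Phe628 (CHO-expressed, 0.5 μg/ml final) and brevican-derived Abz/Dnp peptide (25 μM final) in 50 mM HEPES pH 7.5, 100 mM NaCl, 5 mM CaCl2, 0.1% CHAPS, 5% glycerol. Enzyme preincubated with compound before substrate; fluorescence (ex 340/em 420 nm) followed kinetically 40 min at 30 °C.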

[2] = biological target: T2, Agg-1 (Homo sapiens, UniProt O75173); assay: Agg-1 FRET assay; assay type: biochemical; details: for IC50: read-out: Agg1 IC50; for inhibition at 22 µM: @ 22000 nM
T2 sequence (O75173 213-837): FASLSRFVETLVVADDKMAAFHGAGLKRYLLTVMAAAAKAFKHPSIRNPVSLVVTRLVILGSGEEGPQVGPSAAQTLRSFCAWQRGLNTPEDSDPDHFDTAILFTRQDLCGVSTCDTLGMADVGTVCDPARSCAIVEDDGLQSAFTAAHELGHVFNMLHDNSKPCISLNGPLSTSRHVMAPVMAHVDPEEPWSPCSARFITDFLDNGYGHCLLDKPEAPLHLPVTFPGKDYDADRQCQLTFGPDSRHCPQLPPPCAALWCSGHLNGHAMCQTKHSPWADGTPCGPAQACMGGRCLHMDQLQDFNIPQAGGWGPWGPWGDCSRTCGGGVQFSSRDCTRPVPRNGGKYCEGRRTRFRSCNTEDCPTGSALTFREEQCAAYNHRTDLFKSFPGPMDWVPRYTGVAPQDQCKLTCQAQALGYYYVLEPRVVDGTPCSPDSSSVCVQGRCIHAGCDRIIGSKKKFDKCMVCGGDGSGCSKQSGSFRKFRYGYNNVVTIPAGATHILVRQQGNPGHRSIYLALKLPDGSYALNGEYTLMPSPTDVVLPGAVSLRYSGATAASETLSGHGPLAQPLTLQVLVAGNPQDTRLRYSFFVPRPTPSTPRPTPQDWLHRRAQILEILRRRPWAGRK
Description: The Agg-1/Agg-2 FRET data for N-[(8-hydroxyquinolin-2-yl)(phenyl)methyl]-2-phenoxyacetamide and 2-{[(phenoxyacetyl)amino](phenyl)methyl}quinolin-8-yl phenoxyacetate is presented in Table 1.

[3] = read-out: Agg-2 FRET Median IC50

`O=C(COc1ccccc1)NC(c1ccccc1)c1cc(-n2cccc2)c2cccnc2c1O` (centres unmarked) [N-[[8-hydroxy-5-(1H-pyrrol-1-yl)quinolin-7-yl](phenyl)methyl]-2-phenoxyacetamide] showed an IC50 ([1]; read-out: Agg2 IC50) of 1.64 µM, an IC50 [1, 3] of 1.64 µM and an inhibition at 200 µM ([2]; @ 200000 nM, read-out: Agg1 %) of 54%.

In the case of `CNCC(=O)Nc1cccc(C(NC(=O)COc2ccccc2)c2cc(Cl)c3cccnc3c2O)c1` (centres unmarked) [Example 207, N-(3-{(5-chloro-8-hydroxyquinolin-7-yl)[(phenoxyacetyl)amino]methyl}phenyl)-N-2-methylglycinamide], the IC50 ([1]; read-out: Agg2 IC50) is reported as 3.5 µM and the IC50 [2] is reported as 22 to 67 µM.

`O=C(Cc1ccccc1)NC(c1ccc(F)cc1)c1cc(Cl)c2cccnc2c1O` (centres unmarked) [N-[(5-chloro-8-hydroxyquinolin-7-yl)(4-fluorophenyl)methyl]-2-phenylacetamide] was tested, and the IC50 ([1]; read-out: Agg2 IC50) was 2.14 µM, the IC50 [1, 3] was 2.14 µM and the inhibition at 3.7 µM ([2]; @ 3700 nM, read-out: Agg1 %) was 33%.

Work on `CCCCOc1ccc(C(NC(=O)COc2ccccc2)c2cc(Cl)c3cccnc3c2O)cc1` (centres unmarked) [N-[(4-butoxyphenyl)(5-chloro-8-hydroxyquinolin-7-yl)methyl]-2-phenoxyacetamide] yielded an inhibition at […] ([1]; @ 2500 nM) of 55% and an inhibition at 67 µM ([2]; @ 67000 nM, read-out: Agg1 %) of 50%.

`CCCc1ccc(OCC(=O)NC(c2ccccc2Cl)c2cc(Cl)c3cccnc3c2O)cc1` (centres unmarked) [N-[(5-chloro-8-hydroxyquinolin-7-yl)(2-chlorophenyl)methyl]-2-(4-propylphenoxy)acetamide] showed an inhibition at […] ([1]; @ 2500 nM) of 47% and an inhibition at […] ([2]; @ 1100 nM, read-out: Agg1 %) of 44%.

Molecule `O=C(COc1ccccc1)NC(c1cc(Cl)c2cccnc2c1O)c1cccc2[nH]ccc12` (centres unmarked) [N-[(5-chloro-8-hydroxyquinolin-7-yl)(1H-indol-4-yl)methyl]-2-phenoxyacetamide] has an IC50 ([1]; read-out: Agg2 IC50) of 2.1 µM, an IC50 [1, 3] of 2.08 µM and an inhibition at 0.8 µM ([2]; @ 800 nM, read-out: Agg1 %) of 41%.

`O=C(COc1ccccc1)NC(c1cccc(Oc2ccc(Cl)cc2)c1)c1cc(Cl)c2cccnc2c1O` (centres unmarked) [Example 129, N-{(5-chloro-8-hydroxyquinolin-7-yl)[3-(4-chlorophenoxy)phenyl]methyl}-2-phenoxyacetamide] showed an inhibition at 11 µM ([1]; @ 11000 nM) of 52% and an inhibition at 22 µM ([2]; read-out: Agg1 %) of 51%.

Work on `CC(C)c1ccc(C(NC(=O)COc2ccccc2)c2cc(Cl)c3cccnc3c2O)cc1` (centres unmarked) [N-[(5-chloro-8-hydroxyquinolin-7-yl)(4-isopropylphenyl)methyl]-2-phenoxyacetamide] yielded an inhibition at […] ([1]; @ 2500 nM) of 45% and an inhibition at 33 µM ([2]; @ 33000 nM, read-out: Agg1 %) of 47%.

`Cc1ccc(C(NC(=O)COc2ccccc2)c2cc(Cl)c3cccnc3c2O)o1` (centres unmarked) [N-[(5-chloro-8-hydroxyquinolin-7-yl)(5-methyl-2-furyl)methyl]-2-phenoxyacetamide] gave an IC50 ([1]; read-out: Agg2 IC50) of 2.32 µM, an IC50 [1, 3] of 2.33 µM and an IC50 [2] greater than 22 µM.

With `COc1ccc(C(NC(=O)COc2ccccc2)c2cc(Cl)c3cccnc3c2O)c2ccccc12` (centres unmarked) [N-[(5-chloro-8-hydroxyquinolin-7-yl)(4-methoxy-1-naphthyl)methyl]-2-phenoxyacetamide] the IC50 ([1]; read-out: Agg2 IC50) was 0.8 µM and the inhibition at 22 µM ([2]; read-out: Agg1 %) was 62%.

For `CC1(C)CCc2cc(C(NC(=O)COc3ccccc3)c3cc(Cl)c4cccnc4c3O)ccc2O1` (centres unmarked) [Example 171, N-[(5-chloro-8-hydroxyquinolin-7-yl)(2,2-dimethyl-3,4-dihydro-2H-chromen-6-yl)methyl]-2-phenoxyacetamide], the IC50 ([1]; read-out: Agg2 IC50) was 1.4 µM and the inhibition at 66.7 µM ([2]; @ 66700 nM, read-out: Agg1 %) was 55%.

With `O=C(COc1ccccc1)NC(c1ccc(C#Cc2ccccc2)cc1)c1cc(Cl)c2cccnc2c1O` (centres unmarked) [Example 141, N-{(5-chloro-8-hydroxyquinolin-7-yl)[4-(phenylethynyl)phenyl]methyl}-2-phenoxyacetamide] the inhibition at […] ([1]; @ 1200 nM) was 58%, the “Agg-2 FRET Median PCT INHIB” value [1] was 50% and the inhibition at 7.4 µM ([2]; @ 7400 nM, read-out: Agg1 %) was 48%.

For `COc1ccccc1C(NC(=O)COc1ccccc1)c1cc(Cl)c2cccnc2c1O` (centres unmarked) [Example 122, N-[(5-chloro-8-hydroxyquinolin-7-yl)(2-methoxyphenyl)methyl]-2-phenoxyacetamide], the IC50 ([1]; read-out: Agg2 IC50) was 2.3 µM, the IC50 [1, 3] was 2.34 µM and the inhibition at 667 µM ([2]; @ 667000 nM, read-out: Agg1 %) was 48%.

In the case of `O=C(NC(c1ccccc1)c1cc(Cl)c2cccnc2c1O)OCc1ccccc1` (centres unmarked) [benzyl [(5-chloro-8-hydroxyquinolin-7-yl)(phenyl)methyl]carbamate], the “Agg-2 FRET Median PCT INHIB” value [1] is reported as 46%, the IC50 ([1]; read-out: Agg2 IC50) is reported as greater than 67 µM and the IC50 [2] is reported as greater than 100 µM.
